# Target: lysine residues on bovine serum albumin (Bos taurus, UniProt P02769)
# Experiment: Protein crosslinking method (reactivity with lysine residues)
# Format: biochemical
# Settings: 30 mM working concentration, 70° C., BSA 10 mg/mL; among standard reference materials
# Procedure: Selected active carbonyl compounds (glycolaldehyde, glyoxal, methyl glyoxal, and other carbonyls) were compared for their protein crosslinking capability. Standard reference materials were purchased from Sigma Aldrich [Glycolaldehyde (material no. G6805-5G, batch no. STBG0623V), Glyoxal (material no. 128465-500G, batch no. STBH8032), Methylglyoxal (material no. M0252-250 ml, batch no. BCBT1161), and other carbonyl (material no. F8775-500 ml, batch no. MKCK0272)]. Glutaraldehyde used as a reference material. The protein crosslinking capability was measured as their reactivity with lysine residues on bovine serum albumin (FIG. 6). In the Protein Crosslinking method, experiments were conducted at 30 mM working concentration of individual carbonyls and at 70° C.
# Two IsoFin Products were made using two different types of natural liquid smoke flavors (CS9 and MA45GF) and were compared for total carbonyls and protein crosslinking capability. Among the two, the IsoFin B (CS9 based) was made with 50% CS9 (lot #0218938702, Zesti Smoke, Kerry America Region, Monterey, Tenn.) and 50% Homestyle vinegar flavor (IsoAge Technologies, Springfield, Mo.), whereas the IsoFin B (MA45GF based) was made with 9% MA45GF (lot #0214042186, Red Arrow, Kerry America Region, Manitowoc, Wis.)), 1% 300 grain vinegar (lot #09918209), and 90% Homestyle vinegar flavor. […]
# lysine residues on bovine serum albumin, sequence (P02769 25-607): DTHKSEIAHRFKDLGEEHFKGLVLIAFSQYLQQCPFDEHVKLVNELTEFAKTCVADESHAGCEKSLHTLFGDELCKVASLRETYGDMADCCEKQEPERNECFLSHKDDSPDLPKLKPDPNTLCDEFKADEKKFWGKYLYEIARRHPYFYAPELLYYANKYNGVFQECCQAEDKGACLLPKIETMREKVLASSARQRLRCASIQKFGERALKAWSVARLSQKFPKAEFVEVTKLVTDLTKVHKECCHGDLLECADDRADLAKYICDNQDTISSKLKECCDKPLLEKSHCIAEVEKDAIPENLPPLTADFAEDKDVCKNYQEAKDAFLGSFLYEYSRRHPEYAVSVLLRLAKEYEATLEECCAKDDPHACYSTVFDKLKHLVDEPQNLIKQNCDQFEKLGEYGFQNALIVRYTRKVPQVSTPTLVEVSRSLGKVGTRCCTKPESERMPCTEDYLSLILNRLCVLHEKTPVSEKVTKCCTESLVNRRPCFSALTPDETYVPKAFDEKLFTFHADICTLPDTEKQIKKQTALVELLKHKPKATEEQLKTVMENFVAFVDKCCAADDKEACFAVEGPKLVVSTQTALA
structure (smiles),measurement,value
"O=CCO [glycolaldehyde, Glycolaldehyde]",reactivity with lysine (protein crosslinking capability),maximum reactivity with lysine

# Source: patent US20210309951A1, “USE OF NATURAL FLAVORS AND NATURAL SMOKE FLAVORS TO ENHANCE FUNCTIONALITY OF BUFFERED ORGANIC ACIDS AND METHODS FOR PRODUCING THE SAME” (Kerry Luxembourg S.à.r.I., priority 2020, published 2021)
